Experimental findings from US20090275583A1, “ANTIVIRAL COMPOUNDS AND USE THEREOF” (Myriad Genetics, Incorporated, priority 2006, published 2009) are described below.

Where two headings read alike, the source gives them in different places.

Assay [1] has as its system HIV-1NL4-3. As to the kind of experiment: P4-MAGI assay. Type of assay: cell-based. An outline of the steps:
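HeLa-derived CD4+ P4 cells carrying an LTR-driven lacZ were infected with HIV-1NL4-3 at MOI 1 with DEAE-Dextran, then compound added in increasing concentrations right after virus; infection reported as Tat-induced β-galactosidase. TC50 measured by WST-1 in mock-infected cells.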

For assay [2], the system named is HIV-1 laboratory strain, NL4-3. As to the kind of experiment: MT-4 cytoprotection assay. It is filed as cell-based. As to the method: The HTLV-1 transformed T cell line, MT-4, is highly susceptible to HIV-1 infection. Anti-HIV-1 agents were evaluated in this target cell line by protection from the HIV-induced cytopathic effect. In this assay, viability of both HIV-1 and mock-infected cells was assessed in a […] assay that monitors the ability of metabolically-active cells to reduce the tetrazolium salt WST-1. Cytoprotection by antiviral compounds is indicated by the positive readout of increased WST-1 cleavage.
Briefly, exponentially growing MT-4 cells were mock-infected or batch-infected with the HIV-1 laboratory strain, NL4-3, at a multiplicity of infection of 0.0005. Following a two hour infection, the cells were washed to remove unbound virus and plated in the presence of increasing concentrations of compound. After four days incubation, cytoprotection in the infected cells and compound toxicity in mock-infected cells were analyzed using the WST-1 assay.

The mark [3] stands for this setting: Human immunodeficiency virus 1, 24 h, P4 cells, 24 hour incubation, β-galactosidase expression, read-out: P4-MAGI IC50.
Where [4] appears, read: Human immunodeficiency virus 1, text statement, less than about 100 nm, read-out: P4-MAGI assay IC50.
Where [5] appears, read: Human immunodeficiency virus 1, NL43, MT4, 96 h, MT-4 cells, four days incubation, WST-1 readout, read-out: MT4 EC50.
Setting [6] is: Human immunodeficiency virus 1, NL43, less than about 100 nm, read-out: MT-4 assay EC50 (concentration of compound that reduces the virus induced cytopathic effect by 50%).

With `C=C(C)[C@@H]1CC[C@]2(C(=O)NCc3cccc(C(=O)NCC(C)c4cccc(C(=O)O)c4)c3)CC[C@]3(C)C(CCC4[C@@]5(C)CC[C@H](O)C(C)(C)C5CC[C@]43C)C12` (stereo partly drawn) [Example 19], the IC50 in assay [1] (setting [3]) is 6.2 nM; in assay [1] (setting [4]), less than 100 nM. Besides, the EC50 in assay [2] (setting [5]) was 19 nM; in assay [2] (setting [6]) it was less than 100 nM.
As for `C=C(C)[C@@H]1CC[C@]2(C(=O)NCc3cccc(C(=O)NCc4cccc(-c5nn[nH]n5)c4)c3)CC[C@]3(C)C(CCC4[C@@]5(C)CC[C@H](O)C(C)(C)C5CC[C@]43C)C12` (stereo partly drawn) [Example 21], in assay [1] (setting [3]), the IC50 stood at 24.8 nM. In addition, in assay [2] (setting [5]), the EC50 stood at 180 nM.
Turning to `C=C(C)[C@@H]1CC[C@]2(C(=O)NCc3cccc(C(=O)NCc4ccc(C(=O)O)cc4F)c3)CC[C@]3(C)C(CCC4[C@@]5(C)CC[C@H](O)C(C)(C)C5CC[C@]43C)C12` (stereo partly drawn) [Example 22], the IC50 in assay [1] (setting [3]) was found to be 15.4 nM. In addition, the figures for the EC50 in assay [2] (setting [5]) and in assay [2] (setting [6]) were 9.7 nM and less than 100 nM, respectively.
Take `C=C(C)[C@@H]1CC[C@]2(C(=O)NCc3cccc(C(=O)NCc4cccc(C(N)=O)c4)c3)CC[C@]3(C)C(CCC4[C@@]5(C)CC[C@H](O)C(C)(C)C5CC[C@]43C)C12` (stereo partly drawn) [Example 23]: the half-maximal inhibitory concentration (IC50) in assay [1] (setting [3]) amounted to 52.7 nM. The EC50 in assay [2] (setting [5]) was 329 nM.
The like results for `C=C(C)[C@@H]1CC[C@]2(C(=O)NCc3cccc(C(=O)NCc4cc(C(=O)OC)ccc4F)c3)CC[C@]3(C)C(CCC4[C@@]5(C)CC[C@H](O)C(C)(C)C5CC[C@]43C)C12` (stereo partly drawn) [Example 24] were, in that order, 186 nM and more than 10000 nM.
For `C=C(C)[C@@H]1CC[C@]2(C(=O)NCc3cccc(C(=O)NCc4ccc(F)c(C(=O)OC)c4)c3)CC[C@]3(C)C(CCC4[C@@]5(C)CC[C@H](O)C(C)(C)C5CC[C@]43C)C12` (stereo partly drawn) [Example 25], the IC50 in assay [1] (setting [3]) was 40.4 nM; in assay [1] (setting [4]), less than 100 nM. The EC50 in assay [2] (setting [5]) is 100 nM; in assay [2] (setting [6]), less than 100 nM.
As for `C=C(C)[C@@H]1CC[C@]2(C(=O)NCc3cccc(C(=O)NCc4cc(C(=O)O)ccc4F)c3)CC[C@]3(C)C(CCC4[C@@]5(C)CC[C@H](O)C(C)(C)C5CC[C@]43C)C12` (stereo partly drawn) [Example 26], the half-maximal inhibitory concentration (IC50) in assay [1] (setting [3]) was 78.6 nM; in assay [1] (setting [4]) it was less than 100 nM. Besides, in assay [2] (setting [5]), the EC50 worked out at 200 nM.
For `C=C(C)[C@@H]1CC[C@]2(C(=O)NCc3cccc(C(=O)NCc4ccc(F)c(C(=O)O)c4)c3)CC[C@]3(C)C(CCC4[C@@]5(C)CC[C@H](O)C(C)(C)C5CC[C@]43C)C12` (stereo partly drawn) [Example 27], the IC50 was 53.5 nM in assay [1] (setting [3]) and less than 100 nM in assay [1] (setting [4]). Besides, the EC50 in assay [2] (setting [5]) was 73 nM; in assay [2] (setting [6]), less than 100 nM.
In the case of `C=C(C)[C@@H]1CC[C@]2(C(=O)NCc3cccc(C(=O)NCc4ccc(C(=O)OC)s4)c3)CC[C@]3(C)C(CCC4[C@@]5(C)CC[C@H](O)C(C)(C)C5CC[C@]43C)C12` (stereo partly drawn) [Example 29], the IC50 in assay [1] (setting [3]) is 37.9 nM; in assay [1] (setting [4]), less than 100 nM. The EC50 in assay [2] (setting [5]) is 18 nM; in assay [2] (setting [6]) it was less than 100 nM.
As for `C=C(C)[C@@H]1CC[C@]2(C(=O)NCc3cccc(C(=O)NCCc4ccc(F)c(C(=O)O)c4)c3)CC[C@]3(C)C(CCC4[C@@]5(C)CC[C@H](O)C(C)(C)C5CC[C@]43C)C12` (stereo partly drawn) [Example 32], the IC50 was 15 nM in assay [1] (setting [3]) and less than 100 nM in assay [1] (setting [4]). In assay [2] (setting [5]), the EC50 stood at 3000 nM.
Turning to `C=C(C)[C@@H]1CC[C@]2(C(=O)NCc3cccc(C(=O)NCCc4ccc(F)c(C(=O)OC)c4)c3)CC[C@]3(C)C(CCC4[C@@]5(C)CC[C@H](O)C(C)(C)C5CC[C@]43C)C12` (stereo partly drawn) [Example 33], the IC50 in assay [1] (setting [3]) was 135 nM. For the same compound, the EC50 in assay [2] (setting [5]) is 18 nM; in assay [2] (setting [6]) it was less than 100 nM.
Turning to `C=C(C)[C@@H]1CC[C@]2(C(=O)NCc3cccc(C(=O)NCc4ccc(C(=O)O)c(F)c4)c3)CC[C@]3(C)C(CCC4[C@@]5(C)CC[C@H](O)C(C)(C)C5CC[C@]43C)C12` (stereo partly drawn) [Example 34], the IC50 in assay [1] (setting [3]) was 24.3 nM; in assay [1] (setting [4]), less than 100 nM. In addition, the EC50 was 19 nM in assay [2] (setting [5]) and less than 100 nM in assay [2] (setting [6]).
Take `C=C(C)[C@@H]1CC[C@]2(C(=O)NCc3cccc(C(=O)NCc4ccc(C(=O)O)s4)c3)CC[C@]3(C)C(CCC4[C@@]5(C)CC[C@H](O)C(C)(C)C5CC[C@]43C)C12` (stereo partly drawn) [Example 35]: the IC50 in assay [1] (setting [3]) was 53.2 nM; in assay [1] (setting [4]), less than 100 nM. For the same compound, the EC50 in assay [2] (setting [5]) was 85 nM; in assay [2] (setting [6]) it was less than 100 nM.
For the compound `C=C(C)[C@@H]1CC[C@]2(C(=O)NCc3cccc(C(=O)NCCc4cccc(C(=O)O)c4F)c3)CC[C@]3(C)C(CCC4[C@@]5(C)CC[C@H](O)C(C)(C)C5CC[C@]43C)C12` (stereo partly drawn) [Example 36], the IC50 in assay [1] (setting [3]) was 16.4 nM; in assay [1] (setting [4]), less than 100 nM. For the same compound, the EC50 in assay [2] (setting [5]) was 8.5 nM; in assay [2] (setting [6]) it was less than 100 nM.
Regarding `C=C(C)[C@@H]1CC[C@]2(C(=O)NCc3cccc(C(=O)NCC(F)(F)c4ccc(C(=O)O)cc4)c3)CC[C@]3(C)C(CCC4[C@@]5(C)CC[C@H](O)C(C)(C)C5CC[C@]43C)C12` (stereo partly drawn) [Example 37], the IC50 was 56.7 nM in assay [1] (setting [3]) and less than 100 nM in assay [1] (setting [4]). Besides, the results for the EC50 in assay [2] (setting [5]) and in assay [2] (setting [6]) were 7.3 nM and less than 100 nM, respectively.
Regarding `C=C(C)[C@@H]1CC[C@]2(C(=O)NCc3cccc(C(=O)NCC(C)(C)c4cccc(C(=O)O)c4)c3)CC[C@]3(C)C(CCC4[C@@]5(C)CC[C@H](O)C(C)(C)C5CC[C@]43C)C12` (stereo partly drawn) [Example 39], the IC50 in assay [1] (setting [3]) was 40.2 nM; in assay [1] (setting [4]), less than 100 nM. Moreover, the EC50 in assay [2] (setting [5]) was 5.3 nM; in assay [2] (setting [6]), less than 100 nM.
For `C=C(C)[C@@H]1CC[C@]2(C(=O)NCc3cccc(C(=O)NCCc4ccc(C(=O)O)c(F)c4)c3)CC[C@]3(C)C(CCC4[C@@]5(C)CC[C@H](O)C(C)(C)C5CC[C@]43C)C12` (stereo partly drawn) [Example 40], the IC50 is 19.9 nM in assay [1] (setting [3]) and less than 100 nM in assay [1] (setting [4]). For the same compound, the EC50 in assay [2] (setting [5]) is 6.3 nM; in assay [2] (setting [6]), less than 100 nM.
As to `C=C(C)[C@@H]1CC[C@]2(C(=O)NCc3cccc(C(=O)NCc4cccc(C(=O)O)c4F)c3)CC[C@]3(C)C(CCC4[C@@]5(C)CC[C@H](O)C(C)(C)C5CC[C@]43C)C12` (stereo partly drawn) [Example 41], the IC50 in assay [1] (setting [3]) is 36.7 nM; in assay [1] (setting [4]) it was less than 100 nM. Besides, the EC50 in assay [2] (setting [5]) was 1.9 nM; in assay [2] (setting [6]) it was less than 100 nM.
In the case of `C=C(C)[C@@H]1CC[C@]2(C(=O)NCc3cccc(C(=O)NCc4cccc(C(=O)OC)c4F)c3)CC[C@]3(C)C(CCC4[C@@]5(C)CC[C@H](O)C(C)(C)C5CC[C@]43C)C12` (stereo partly drawn) [Example 42], the IC50 in assay [1] (setting [3]) is 58.3 nM; in assay [1] (setting [4]), less than 100 nM. Also, the EC50 is 42 nM in assay [2] (setting [5]) and less than 100 nM in assay [2] (setting [6]).
Consider `C=C(C)[C@@H]1CC[C@]2(C(=O)NCc3cccc(C(=O)NCCc4ccc(C(=O)O)cc4F)c3)CC[C@]3(C)C(CCC4[C@@]5(C)CC[C@H](O)C(C)(C)C5CC[C@]43C)C12` (stereo partly drawn) [Example 43], for which the values for the 50% inhibitory concentration (IC50) in assay [1] (setting [3]) and in assay [1] (setting [4]) were 16.8 nM and less than 100 nM, respectively. In addition, the EC50 in assay [2] (setting [5]) is 9.3 nM; in assay [2] (setting [6]), less than 100 nM.
As to `C=C(C)[C@@H]1CC[C@]2(C(=O)NCc3cccc(C(=O)NCCc4ccc(S(N)(=O)=O)cc4)c3)CC[C@]3(C)C(CCC4[C@@]5(C)CC[C@H](O)C(C)(C)C5CC[C@]43C)C12` (stereo partly drawn) [Example 45], the half-maximal inhibitory concentration (IC50) is 15.9 nM in assay [1] (setting [3]) and less than 100 nM in assay [1] (setting [4]). Further, the EC50 in assay [2] (setting [5]) is 94 nM; in assay [2] (setting [6]), less than 100 nM.
On to `C=C(C)[C@@H]1CC[C@]2(C(=O)NCc3cccc(C(=O)NCc4ccc(N(C)C)cc4)c3)CC[C@]3(C)C(CCC4[C@@]5(C)CC[C@H](O)C(C)(C)C5CC[C@]43C)C12` (stereo partly drawn) [Example 47], for which the IC50 in assay [1] (setting [3]) was 36.3 nM; in assay [1] (setting [4]) it was less than 100 nM. For the same compound, the EC50 in assay [2] (setting [5]) is 41.3 nM; in assay [2] (setting [6]), less than 100 nM.

The term IC50 denotes the concentration needed to halve the response being measured.
